Assay: xn = mol fraction of the nth substance listed
Conditions: 100 kPa, Liquid; for mass density: Vibrating tube method; for viscosity: Concentric cylinders viscometry

CCCCC1CCCCC1 [butylcyclohexane] + CC(C)CC(C)(C)C
Conditions	mass density [kg/m3]	viscosity [mPa·s]
308.15 K, x1 = 0.0999	691.83	–
308.15 K, x1 = 0.2002	703.8	–
308.15 K, x1 = 0.3001	715.4	–
308.15 K, x1 = 0.3996	726.61	–
308.15 K, x1 = 0.5005	737.66	–
308.15 K, x1 = 0.6003	748.29	–
308.15 K, x1 = 0.6994	758.58	–
308.15 K, x1 = 0.8	768.72	–
308.15 K, x1 = 0.9001	778.55	–
308.15 K, x1 = 1	788.12	–
313.15 K, x1 = 0.0999	687.7	0.464
313.15 K, x1 = 0.2002	699.73	0.502
313.15 K, x1 = 0.3001	711.37	0.544
313.15 K, x1 = 0.3996	722.64	0.588
313.15 K, x1 = 0.5005	733.72	0.638
313.15 K, x1 = 0.6003	744.39	0.691
313.15 K, x1 = 0.6994	754.72	0.749
313.15 K, x1 = 0.8	764.89	0.814
313.15 K, x1 = 0.9001	774.76	0.883
313.15 K, x1 = 1	784.35	0.961
318.15 K, x1 = 0.0999	683.64	0.446
318.15 K, x1 = 0.2002	695.56	0.482
318.15 K, x1 = 0.3001	707.24	0.519
318.15 K, x1 = 0.3996	718.6	0.561
318.15 K, x1 = 0.5005	729.73	0.607
318.15 K, x1 = 0.6003	740.43	0.654
318.15 K, x1 = 0.6994	750.82	0.708
318.15 K, x1 = 0.8	760.98	0.765
318.15 K, x1 = 0.9001	770.84	0.829
318.15 K, x1 = 1	780.49	0.9
323.15 K, x1 = 0.0999	679.45	0.427
323.15 K, x1 = 0.2002	691.42	0.46
323.15 K, x1 = 0.3001	703.16	0.496
323.15 K, x1 = 0.3996	714.56	0.534
323.15 K, x1 = 0.5005	725.73	0.575
323.15 K, x1 = 0.6003	736.49	0.62
323.15 K, x1 = 0.6994	746.95	0.668
323.15 K, x1 = 0.8	757.16	0.721
323.15 K, x1 = 0.9001	767.06	0.779
323.15 K, x1 = 1	776.7	0.844
333.15 K, x1 = 0.0999	670.99	0.396
333.15 K, x1 = 0.2002	683.12	0.424
333.15 K, x1 = 0.3001	694.98	0.454
333.15 K, x1 = 0.3996	706.46	0.487
333.15 K, x1 = 0.5005	717.7	0.522
333.15 K, x1 = 0.6003	728.53	0.56
333.15 K, x1 = 0.6994	739.06	0.601
333.15 K, x1 = 0.8	749.37	0.646
333.15 K, x1 = 0.9001	759.38	0.695
333.15 K, x1 = 1	769.09	0.749
343.15 K, x1 = 0.0999	662.4	0.369
343.15 K, x1 = 0.2002	674.66	0.394
343.15 K, x1 = 0.3001	686.64	0.42
343.15 K, x1 = 0.3996	698.25	0.448
343.15 K, x1 = 0.5005	709.63	0.48
343.15 K, x1 = 0.6003	720.57	0.51
343.15 K, x1 = 0.6994	731.21	0.545
343.15 K, x1 = 0.8	741.57	0.584
343.15 K, x1 = 0.9001	751.62	0.626
343.15 K, x1 = 1	761.43	0.671

From the NIST ThermoML archive (doi:10.1021/acs.jced.5b00105)
